pIC50: −log10 of the molar value. Structures can show the parent of a compound that is named as a salt. Where two headings read alike, the source gives them in different places. Blank lines part the entries; values can stand above or below the compound they belong to.
Experiments:
[1] = biological target: T1, thymidine phosphorylase obtained from human placenta (Homo sapiens, UniProt P19971); assay: Test 1 (Thymidine Phosphorylase Inhibiting Effects); assay type: biochemical
T1 construct: thymidine phosphorylase obtained from human placenta in a highly purified form; from tissue; host or cells: human placenta
T1 sequence (P19971 11-482): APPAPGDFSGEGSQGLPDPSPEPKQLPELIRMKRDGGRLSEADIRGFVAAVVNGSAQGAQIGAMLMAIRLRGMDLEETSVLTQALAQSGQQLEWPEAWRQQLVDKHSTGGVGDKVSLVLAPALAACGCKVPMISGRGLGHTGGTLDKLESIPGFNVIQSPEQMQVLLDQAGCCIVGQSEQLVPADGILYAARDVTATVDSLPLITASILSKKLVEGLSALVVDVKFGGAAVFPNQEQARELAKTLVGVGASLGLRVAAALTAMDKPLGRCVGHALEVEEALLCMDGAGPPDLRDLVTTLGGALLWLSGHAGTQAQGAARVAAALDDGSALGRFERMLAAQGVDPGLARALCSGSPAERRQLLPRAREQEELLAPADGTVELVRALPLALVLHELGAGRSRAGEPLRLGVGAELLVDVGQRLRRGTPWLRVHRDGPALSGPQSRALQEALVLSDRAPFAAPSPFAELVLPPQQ

[2] = test system: TMK-1 (human gastric cancer) cells; assay: Test 2 (Effects of Life Prolongation on Liver Metastasis Model); assay type: in vivo, BALB/c-nu/nu male mice; human gastric cancer cells; details: oral, everyday for 42 days; for Average # of survival time: control 63.4 days; for ILS (%) (increase of life span): vs control, 120 days observation
Procedure: Effects of life prolongation were assessed using a liver metastasis model system consisting of BALB/c-nu/nu male mice (seven weeks old) each of which had been transplanted in the spleen thereof with 1×10^6 cells/mouse of TMK-1 (human gastric cancer) cells.
Specific experimental procedures were carried out by modifying the method proposed by Morikawa et al. in Cancer Research, 48, 1943-1948 (1988). Described specifically, cells which had been cultured in vitro were collected with 0.25%(w/v) trypsin-0.2%(w/v) EDTA and were then washed with a physiological phosphate buffer. The cells were next counted, followed by dilution to 1×10^6 cells/50 μl. Under anesthetization with 30 mg/kg of "Nembutal", each of the mice was incised at its left abdominal region and the spleen was then pulled out. The cell suspension of 10^6 cells/50 μl which had been prepared above was injected in an amount of 50 μl into the spleen by a syringe fitted with a 28-gauge injection needle. After the mouse was left over for 2 minutes, the blood vessel to the spleen was tied at two positions by ligating clips, respectively, and the spleen was cut off. The excised abdominal region was closed with a suturing stapler. Compound No. 29 of the present invention, in a form dissolved in distilled water, was orally administered everyday for 42 days from the day following the transplant. Using the increase of life span (ILS%) of a control as a reference, an assessment was conducted by observing the mouse for 120 days after the transplant of the cells to confirm its survival. The increase of life span (ILS%) was calculated in accordance with the following formula. [formula]

[3] = test system: human colon cancer strain Co-3; assay: Test 3 (Metastasis Inhibiting Effects on Liver Metastasis Model); assay type: in vivo, SPF KSN-nu/nu male mouse; human colon cancer; details: oral; for Number of metastasized mice: 6 courses (5 days on, 2 days off), control 4/6; for Metastasis inhibition rate (%): liver metastasis, 6 courses, vs control
Procedure: About 100 mm^3 of human colon cancer strain Co-3 were transplanted to the cecum of each SPF KSN-nu/nu male mouse (seven weeks old). Two weeks after the transplant, a primary carcinoma lesion was removed by surgically cutting off the cecum. […] The administration was conducted for 6 courses, each consisting of administration of 5 straight days followed by a suspension of administration for 2 days. To mice in a control, only 0.5% (w/v) hydroxypropyl methylcellulose solution was orally administered. On the day following the completion of the administration, each mouse was sacrificed and metastasis to the liver was determined based on autopsy.

[4] = inhibition of [6-^3H]thymine formation from [6-^3H]thymidine, 37° C., 5 minutes, pH 7.4, read-out: IC50

pIC50 [1, 4]: 5.66
Compound: O=c1[nH]c(CN2CCCC2)c(Cl)c(=O)[nH]1 [Compound 1, 5-chloro-6-(1-pyrrolidinylmethyl)uracil]

pIC50 [1, 4]: 6.29
Compound: O=c1[nH]c(CN2CCCC2)c(Br)c(=O)[nH]1 [Compound 2, 5-bromo-6-(1-pyrrolidinylmethyl)uracil]

pIC50 [1, 4]: 6.00
Compound: O=c1[nH]c(Cn2ccnc2)c(Cl)c(=O)[nH]1 [Compound 51, 5-chloro-6-(1-imidazolylmethyl)uracil hydrochloride]

Compound: Cn1ccn(Cc2[nH]c(=O)[nH]c(=O)c2Cl)c1=N [Compound 20]
pIC50 [1]: 6.62

pIC50 [1, 4]: 5.59
Compound: O=c1[nH]c(CN2CCC2)c(Cl)c(=O)[nH]1 [Compound 6, 5-chloro-6-(1-azetidinylmethyl)uracil]

Compound: CN1CCN(Cc2[nH]c(=O)[nH]c(=O)c2Cl)C1=N [Compound 34]
pIC50 [1]: 7.34

pIC50 [1, 4]: 5.89
Compound: O=c1[nH]c(CN2CCCC2)c(I)c(=O)[nH]1 [Compound 3]

pIC50 [1, 4]: 5.82
Compound: CC(=N)NCc1[nH]c(=O)[nH]c(=O)c1Cl [Compound 73, N-(5-chlorouracil-6-ylmethyl)-acetamidine hydrochloride]

pIC50 [1, 4]: 6.82
Compound: CNC(=N)SCc1[nH]c(=O)[nH]c(=O)c1Cl [Compound 57]

Compound: N=C1CCCN1Cc1[nH]c(=O)[nH]c(=O)c1Cl [Compound 29, 5-chloro-6-(1-(2-iminopyrrolidinyl)-methyl)uracil hydrochloride]
Average # of survival time ([2]; 50 mg/kg/day, N = 8): 88.5 days | ILS (%) (increase of life span) ([2]; 50 mg/kg/day): 39.6% | Average # of survival time ([2]; 100 mg/kg/day, N = 9): 90.8 days | ILS (%) (increase of life span) ([2]; 100 mg/kg/day): 43.2% | Number of metastasized mice ([3]; 18.4 mg/kg/day): 2/6 | Number of metastasized mice ([3]; 36.9 mg/kg/day): 1/6 | Metastasis inhibition rate (%) ([3]; 18.4 mg/kg/day): 50% | Metastasis inhibition rate (%) ([3]; 36.9 mg/kg/day): 75%

Compound: Cc1c(CN2CCCC2=N)[nH]c(=O)[nH]c1=O [Compound 32]
pIC50 [1]: 6.92

pIC50 [1, 4]: 5.92
Compound: O=c1[nH]c(CN2C=NCC2)c(Cl)c(=O)[nH]1 [Compound 50, 5-chloro-6-(2-imidazolin-1-ylmethyl)-uracil hydrochloride]

pIC50 [1, 4]: 3.89
Compound: N#Cc1ccc(O)[nH]c1=O [3-Cyano-2,6-dihydroxypyridine, reference compound]

pIC50 [1, 4]: 6.57
Compound: N=C(N)NCc1[nH]c(=O)[nH]c(=O)c1Cl [Compound 68, 5-chloro-6-(1-guanidino)methyluracil hydrochloride]

Compound: N#Cc1c(CN2CCCC2=N)[nH]c(=O)[nH]c1=O [Compound 33, 5-cyano-6-(1-(2-iminopyrrolidinyl)methyl)uracil]
pIC50 [1]: 7.77

Compound: N=C1NCCN1Cc1[nH]c(=O)[nH]c(=O)c1Br [Compound 48, 5-bromo-6-(1-(2-iminoimidazolidinyl)methyl) uracil]
pIC50 [1]: 7.52

pIC50 [1, 4]: < 3.00
Compound: Cc1cn(COCCO)c(=O)[nH]c1=O [Acyclothymidine, reference compound]

pIC50 [1, 4]: 7.00
Compound: N#Cc1c(CSC(=N)N)[nH]c(=O)[nH]c1=O [Compound 56, 2-(5-cyanouracil-6-ylmethyl)isothiourea hydrochloride]
